ChEMBL document CHEMBL2346635, “6-Oxo and 6-thio purine analogs as antimycobacterial agents” (Bioorg Med Chem, 2013)
Values after ≈ are worked out from the molar mass of the structure shown.

Experiments:
Format in all cases: functional
[1] = test system: Mycobacterium tuberculosis; assay: Antimycobacterial activity against ciprofloxacin-resistant Mycobacterium tuberculosis assessed as growth inhibition by Alamar blue assay
[2] = test system: Mycobacterium tuberculosis; assay: Antimycobacterial activity against isoniazid-resistant Mycobacterium tuberculosis assessed as growth inhibition by Alamar blue assay
[3] = test system: Mycobacterium tuberculosis; assay: Antimycobacterial activity against ethambutol-resistant Mycobacterium tuberculosis assessed as growth inhibition by Alamar blue assay
[4] = test system: Mycobacterium tuberculosis; assay: Antimycobacterial activity against rifampin-resistant Mycobacterium tuberculosis assessed as growth inhibition by Alamar blue assay
[5] = test system: Mycobacterium tuberculosis; assay: Antimycobacterial activity against kanamycin-resistant Mycobacterium tuberculosis assessed as growth inhibition by Alamar blue assay
[6] = test system: Mycobacterium tuberculosis; assay: Antimycobacterial activity against thiacetazone-resistant Mycobacterium tuberculosis assessed as growth inhibition by Alamar blue assay

Structure (SMILES) | MIC90 [1] | MIC90 [2] | MIC90 [3] | MIC90 [4] | MIC90 [5] | MIC90 [6]
CCCCCCCCCCSc1ncnc2c1ncn2CC(=O)OCC | 12.5 µg/mL (≈ 33 µM) | 12.5 µg/mL (≈ 33 µM) | 6.25 µg/mL (≈ 16.5 µM) | 6.25 µg/mL (≈ 16.5 µM) | 6.25 µg/mL (≈ 16.5 µM) | 
CCCCCCCCCCCCSc1ncnc2c1ncn2CC(=O)OCC | 1.56 µg/mL (≈ 3.84 µM) | 1.56 µg/mL (≈ 3.84 µM) | 3.13 µg/mL (≈ 7.7 µM) | 3.13 µg/mL (≈ 7.7 µM) |  | 3.13 µg/mL (≈ 7.7 µM)
